Experimental data reported in US8124609B2, “Acyclic nucleoside derivatives” (Medivir AB, priority 1996, dated 2012).

What was measured:
Type in all cases: in vivo
[1] = Plasma concentrations in rats (plasma drug assay, H2G AUC oral vs i.v.); settings: rat, 10 mg/kg oral dose in propylene glycol, plasma H2G AUC vs 10 mg/kg intravenous H2G
Protocol: A plasma concentration assay was done in male Sprague Dawley derived rats. The animals were fasted overnight prior to dosing but were permitted free access to water. Each of the compounds evaluated was prepared as a solution/suspension in propylene glycol at a concentration corresponding to 10 mg H2G/ml and shaken at room temperature for eight hours. Groups of rats (at least 4 rats in each group) received a 10 mg/kg (1 ml/kg) oral dose of each of the compounds; the dose was administered by gavage. At selected time points after dosing (0.25, 0.5, 1, 1.5, 2, 4, 6, 9, 12, 15, and 24 hours after dosing), heparinized blood samples (0.4 ml/sample) were obtained from a tail vein of each animal. The blood samples were immediately chilled in an ice bath. Within two hours of collection, the plasma was separated from the red cells by centrifugation and frozen till analysis. The components of interest were separated from the plasma proteins using acetonitrile precipitation. Following lyophilisation, and reconstitution, the plasma concentrations were determined by reverse phase HPLC with fluorescence detection. The oral uptake of H2G and other test compounds was determined by comparison of the H2G area under the curve derived from the oral dose compared to that obtained from a 10 mg/kg intravenous dose of H2G, administered to a separate group of rats. The results are depicted in Table 1B above.

[2] = Bioavailability testing in rats (24 h urinary H2G recovery); settings: rat; for Bioavailability (Table 2): 0.1 mmol/kg per oral, 24 hour urinary H2G recovery as percentage of recovery after 0.1 mmol/kg i.v. H2G
Protocol: The bioavailability of compounds of the invention were compared to the parent compound H2G and other H2G derivatives in a rat model. Compounds of the invention and comparative compounds were administered, per oral (by catheter into the stomach), to multiples of three individually weighed animals to give 0.1 mmol/kg of the dissolved prod rug in an aqueous (Example 4, 5, Comparative example 1-3, 5, 8), peanut oil (Comparative examples 4, 9, 10) or propylene glycol (Example 1-3, 6-12, 17, Comparative example 6, 7) vehicle dependent on the solubility of the test compound ingredient. The animals were fasted from 5 hours before to approximately 17 hours after administration and were maintained in metabolic cages. Urine was collected for the 24 hours following administration and frozen until analysis. H2G was analysed in the urine using the HPLC/UV assay of Stahle & Öberg, Antimicrob Agents Chemother. 36 No 2, 339-342 (1992), modified as follows: samples upon thawing are diluted 1:100 in aq dist H2O and filtered through an amicon filter with centrifugation at 3000 rpm for 10 minutes. Duplicate 30 μl samples are chromatographed on an HPLC column; Zorbax SB-C18; 75×4.6 mm; 3.5 micron; Mobile phase 0.05M NH4PO4, 3-4% methanol, pH 3.3-3.5; 0.5 ml/min; 254 nm, retention time for H2G at MeOH 4% and pH 3.33, ˜12.5 min. Bioavailability is calculated as the measured H2G recovery from each animal averaged over at least three animals and expressed as a percentage of the averaged 24 hour urinary H2G recovery from a group of 4 individually weighed rats respectively injected i.vjugularis with 0.1 mmol/kg H2G in a Ringer's buffer vehicle and analysed as above.
Comparative example 1 (H2G) was from the same batch as used for preparation of Examples 1 to 12. The preparation of Comparative example 2 (monoVal-H2G) and 3 (diVal-H2G) are shown in Examples 21 and 23. […] Comparative examples 5 & 8 (Val/Ac H2G) were prepared analogously to Example 4 using acetic anhydride with relevant monovaline H2G. […]

[3] = test system: Herpes simplex virus-1 (HSV-1); test: Antiviral activity in HSV-1-infected mouse (survival); settings: 21 and 83 mg/kg p.o. three times daily for 5 days, relative to equivalent dose of acyclovir
Protocol: Herpes simplex virus-1 (HSV-1)-infected mouse serves as an animal model to determine the efficacy of antiviral agents in vivo. Mice inoculated intraperitoneally with HSV-1 at 1000 times the LD50 were administered either with a formulation comprising the currently marketed anti-herpes agent acyclovir (21 and 83 mg/kg in a 2% propylene glycol in sterile water vehicle, three times daily, p.o.) or the compound of Example 29 (21 and 83 mg/kg in a 2% propylene glycol in sterile water vehicle, three times daily, p.o.) for 5 consecutive days beginning 5 hours after inoculation. The animals were assessed daily for deaths. […] In the legend, the compound of the invention is denoted Ex. 29 and acyclovir is denoted ACV.

Bioavailability (Table 1B) [1] [%]	Bioavailability (Table 2) [2] [%]	Bioavailability (Table 1A) ([2]; oral, urinary recovery assay of H2G, relative to i.v. H2G) [%]	Structure (SMILES)	percentage of mice surviving the HSV-1 infection [3]
3.8	8	8	Nc1nc2c(ncn2CC(CO)CCO)c(=O)[nH]1 (centres unmarked) [Comparative example 1, 9-[4-hydroxy-(2-hydroxymethyl)butyl]guanine]	–
–	–	–	CCCCCCCCCCCCCCCCCC(=O)OC[C@H](CCOC(=O)[C@@H](N)C(C)C)Cn1cnc2c(=O)[nH]c(N)nc21.Cl [Example 29]	significantly greater
–	52	–	CC(=O)CCCC(=O)OC[C@H](CCOC(=O)[C@@H](N)C(C)C)Cn1cnc2c(=O)[nH]c(N)nc21 [Example 10]	–
